Assay results as given in patent publication US6596756B1, “Treatment of fibromyalgia” (Eli Lilly and Company, priority 1999, dated 2003).
Read-outs that look alike come from different tables or passages of the source.

Assays:
[1] = test system: mechanical allodynia due to the nerve ligation in rats; conditions: rat; for Allodynia Response: nerve ligation, mean ± SEM, p < 0.05 vs vehicle
Description: All data were analyzed using the JMP statistical program. […] Data were evaluated by one-way analysis of variance (ANOVA) and the appropriate contrasts analyzed by Tukey's test and Dunnett “t” test for two-sided comparisons.

[2] = test system: Male Sprague-Dawley rats; conditions: rat; for Ataxia score 80 mins after drug, i.p. / Ataxia score, 30 mins after drug, i.p. / Ataxia Score, 60 mins after drug, p.o. / Ataxia score 110 mins after drug, p.o.: maximum score 40 seconds, mean ± SEM
Description: The tendency of duloxetine to induce ataxia or neuromuscular effects at analgesic doses was investigated using the well-known rotorod test.
(§1) Male Sprague-Dawley rats (200-250 g; Charles River, Portage, Mich.) were maintained at constant temperature and light (12 h light/12 h dark) for 4-7 days prior to the studies. Animals had free access to food and water at all times prior to the day of the experiment.
An automated accelerating rotorod (Omnitech Electronics Inc., Columbus, Ohio) connected to an IBM PC computer was utilized. For training and testing purposes, the rotorod was set up to accelerate to 17 r.p.m. in 5 seconds and maintaining that speed for 40 seconds. Rats were given 3 training trials to learn to maintain posture on the rotorod prior to the actual day of drug testing. The following day, rotorod testing was conducted both at 30 and 80 minutes for i.p. and at 60 and 110 minutes for p.o. following administration of drug or compound.
All data were analyzed using the JMP statistical program. Data are presented as means with standard errors of means (±SEM). Data were evaluated by one-way analysis of variance (ANOVA) and the appropriate contrasts analyzed by Tukey's test and Dunnett “t” test for two-sided comparisons.

[3] = test system: formalin-induced paw-licking behavior in the rat; conditions: for Early Phase (sum of time spent licking, 0 to 5 minutes) / Late Phase (sum of seconds spent licking, 15 to 40 minutes): mean ± SEM
Source text: (Shibata, M., Ohkubo, T., Takahashi, H., and Inoki, R., “Modified formalin test: Characteristic biphasic pain response,” Pain (1989) 38: 347-352; and Tjolsen, A., Berge, O. G., Hunskaar, S., Rosland, J. H., and Hole, K., “The formalin test: an evaluation of the method,” Pain (1992) 51:5-17.) The effect of duloxetine on formalin-induced paw-licking behavior in the rat was investigated as an index of persistent nociceptive activation. In this test, the injection of formalin under the skin on the dorsal lateral surface of the hind paw of rats causes an immediate and intense increase in the spontaneous activity of C fiber afferents. This activation evokes a distinctly quantifiable behavior indicative of pain, such as licking, flinching, shaking or biting of the injected paw. The behavioral response to formalin is biphasic, with an early phase that is short lived, followed by an extended tonic response or late phase of persistent nociceptive activation. Mechanisms causing the late phase response, such as central sensitization of pain transmitting neurons, are currently believed to contribute to various types of persistent pains.
as §1
The formalin test was performed in custom made Plexiglas® boxes 25×25×20 cm (length×width×height) in size. A mirror placed at the back of the box allowed the unhindered observation of the formalin injected paw. Rats were acclimatized individually in the cubicles at least 1 hour prior to the experiment. All testing was conducted between 08:00 and 14:00 hr and the testing room temperature was maintained at 21-23° C. Test compound was administered 30 or 60 minutes prior to the formalin injection. Formalin (50 μl of a 5% solution in saline) was injected subcutaneously into the dorsal lateral surface of the right hind paw with a 27 gauge needle. Observation started immediately after the formalin injection. Formalin-induced pain was quantified by recording in 5 minute intervals the number of formalin injected paw licking events and the number of seconds each licking event lasted. These recordings were made for 50 minutes after the formalin injection. After the experiment, animals were killed with an overdose of CO2. (Euthanasia protocol, Eli Lilly Animal Use and Care Committee.)
Scoring in the formalin test was performed according to Coderre et al., 1993b and Abbott et al., 1995. (Coderre T. J., Fundytus M. E., McKenna J. E., Dalal S. and Melzack R. “The formalin test: a validation of the weighted-scores method of the behavioral pain rating,” Pain(1993b) 54: 43-50; and Abbott F. V., Franklin K. B. J. and Westbrook R. F. “The formalin test: scoring properties of the first and second phases of the pain response in rats,” Pain (1995) 60: 91-102.) The sum of time spent licking in seconds from time 0 to 5 minutes was considered the early phase while the late phase was taken as the sum of seconds spent licking from 15 to 40 minutes.
Data are presented as means with standard errors of means (±SEM). Data were evaluated by one-way analysis of variance (ANOVA) and the appropriate contrasts analyzed by Tukey's test and Dunnett “t” test for two-sided comparisons.

[4] = 3 mg/kg i.p., 30 min before formalin
[5] = 3 mg/kg p.o., 60 min before formalin

`CNCCC(Oc1cccc2ccccc12)c1cccs1` (stereo not drawn) [duloxetine, N-methyl-3-(1-naphthalenyloxy)-3-(2-thienyl)propanamine] was tested, and the “effect on allodynia following partial ligation of the sciatic nerve (in words)” value ([1]; after acute or sub-chronic systemic administration) was “attenuates the allodynia”, the “Allodynia Response” value ([1]; 15 mg/kg i.p., 1 hour pretreatment) was 8.57 ± 1.72 g and the “Allodynia Response” value ([1]; 20 mg/kg p.o., 1 hour pretreatment) was 8.53 ± 1.66 g. For the same molecule, the “Allodynia Response” value ([1]; 20 mg/kg × 4 day p.o., sub-chronic pretreatment (once a day for four consecutive days)) was 9.18 ± 2.95 g, the “Ataxia score 80 mins after drug, i.p.” value ([2]; 3 mg/kg i.p.) was 33.35 ± 3.23 s and the “Ataxia score, 30 mins after drug, i.p.” value ([2]; 3 mg/kg i.p.) was 34.27 ± 4.02 s. The “Ataxia Score, 60 mins after drug, p.o.” value ([2]; 3 mg/kg p.o.) was 40.00 ± 0.00 s, the “Ataxia score 110 mins after drug, p.o.” value ([2]; 3 mg/kg p.o.) was 40.00 ± 0.00 s and the “Ataxia score 80 mins after drug, i.p.” value ([2]; 10 mg/kg i.p.) was 26.07 ± 6.24 s. For the same molecule, the “Ataxia score, 30 mins after drug, i.p.” value ([2]; 10 mg/kg i.p.) was 29.42 ± 6.71 s, the “Ataxia Score, 60 mins after drug, p.o.” value ([2]; 10 mg/kg p.o.) was 39.11 ± 0.89 s and the “Ataxia score 110 mins after drug, p.o.” value ([2]; 10 mg/kg p.o.) was 39.56 ± 0.44 s. The “Ataxia Score, 60 mins after drug, p.o.” value ([2]; 20 mg/kg p.o.) was 40.00 ± 0.00 s, the “Ataxia score 110 mins after drug, p.o.” value ([2]; 20 mg/kg p.o.) was 40.00 ± 0.00 s and the “Ataxia score 80 mins after drug, i.p.” value ([2]; 30 mg/kg i.p.) was 25.52 ± 5.89 s. For the same molecule, the “Ataxia score, 30 mins after drug, i.p.” value ([2]; 30 mg/kg i.p.) was 24.75 ± 6.88 s, the “ataxia or neuromuscular effects in the rotorod test (in words)” value ([2]; at doses that caused analgesia) was “did not show ataxia or neuromuscular effects” and the “Early Phase (sum of time spent licking, 0 to 5 minutes)” value (from here on “Early Phase”) [3, 4] was 32.78 ± 15.97 s. The “Late Phase (sum of seconds spent licking, 15 to 40 minutes)” value [3, 4] was 254.00 ± 45.87 s, the “Early Phase” value [3, 5] was 21.78 ± 5.14 s and the “Late Phase (sum of seconds spent licking, 15 to 40 minutes)” value [3, 5] was 393.56 ± 26.74 s. For the same molecule, the “Early Phase” value ([3]; 10 mg/kg i.p., 30 min before formalin) was 17.00 ± 5.83 s, the “Late Phase (sum of seconds spent licking, 15 to 40 minutes)” value ([3]; 10 mg/kg i.p., 30 min before formalin, p < 0.05 vs vehicle) was 163.89 ± 54.14 s and the “Early Phase” value ([3]; 10 mg/kg p.o., 60 min before formalin) was 20.22 ± 5.29 s. The “Late Phase (sum of seconds spent licking, 15 to 40 minutes)” value ([3]; 10 mg/kg p.o., 60 min before formalin, p < 0.05 vs vehicle) was 255.78 ± 38.22 s, the “Early Phase” value ([3]; 15 mg/kg i.p., 30 min before formalin) was 29.56 ± 16.30 s and the “Late Phase (sum of seconds spent licking, 15 to 40 minutes)” value ([3]; 15 mg/kg i.p., 30 min before formalin, p < 0.05 vs vehicle) was 80.44 ± 36.22 s. The “Early Phase” value ([3]; 20 mg/kg p.o., 60 min before formalin) was 12.67 ± 3.61 s, the “Late Phase (sum of seconds spent licking, 15 to 40 minutes)” value ([3]; 20 mg/kg p.o., 60 min before formalin, p < 0.05 vs vehicle) was 161.11 ± 31.77 s and the “effect on late phase response to formalin (in words)” value ([3]; i.p. and p.o. dosing) was “blocks the late phase response to formalin in a dose-dependent manner”.
